What was measured:
mouse HSCs = assay: col1A1 mRNA expression in primary cultured mouse HSCs during in vitro culture-induced activation; assay type: cell-based; details: treated on day 1, 3 and 5, FIG. 2a
Procedure: HSCs were isolated from a male C57BL/6 mouse, a male GPR119 WT mouse and a GPR119 KO mouse. More specifically, each mouse was anesthetized to perform an abdominal incision, a cannula was inserted into the hepatic portal vein to introduce a gas mixture of 5% CO2 and 95% 02, and then Ca^2+, Mg^2+-free Hank's balanced salt solution was injected into the cannula at 37° C. to remove blood in the liver. Afterward, a 0.1% collagenase type IV (Sigma, U.S.A.) solution was injected. The liver tissue was detached from the body and prepared in a liver cell suspension, and following centrifugation at 1000×g for 10 minutes, a precipitated cell layer was obtained by floating HSCs to isolate through a density gradient method using Nycodenz. The isolated HSCs were cultured in high glucose Dulbecco's Modified Eagle's Medium (DMEM) containing 10% fetal bovine serum, 50 U/ml penicillin and […] streptomycin at 37° C. in 5% CO2.
Total RNA ([…]) extracted from cells using Trizol and a Maxime RT PreMix Kit (iNtRON Biotechnology, Gyeonggi-do, Korea) was used to obtain cDNA. […]
Meanwhile, for real-time RT-qPCR, the synthesized cDNA was assessed in a CFX Connect™ Real-Time PCR Detection System (Bio-Rad Laboratories, CA, USA) instrument using a SYBR green dye (Bio-Rad). […]

Smad2/Smad3 = assay: TGFβ1-elevated Smad2/Smad3 phosphorylation and nuclear translocation in LX-2; assay type: cell-based, human
Procedure: (§1) A human HSC line (LX-2, Milipore, U.S.A.) was plated in a 6-well plate, and grown to confluency in DMEM supplemented with 1% penicillin-streptomycin (Hyclone, U.S.A.) and 2% fetal bovine serum (Hyclone, U.S.A.) at 37° C. in a 5% CO2 incubator. For a further experiment, the confluent HSC line was incubated in an FBS-free medium, instead of the 2% FBS-added medium.
A whole cell lysate and a nuclear fraction were separated according to a conventional method. More specifically, the whole cell lysate was obtained by lysing cells washed with phosphate buffered saline (PBS) with a lysis buffer [10 mM Tris-HCl (pH 7.1), 100 mM NaCl, 1 mM EDTA, 10% glycerol, 0.5% Triton X-100, 0.5% Nonidet P-40, 1 mM dithiothreitol and 0.5 mM phenylmethylsulfonyl fluoride (PMSF)] at 4° C. for 30 minutes, and centrifuging the resulting solution at 14,000×g for 15 minutes to obtain a supernatant. To obtain the nuclear fraction, a low-osmotic pressure buffer containing 10 mM HEPES (pH 7.9), 10 mM KCl, 0.1 mM EDTA, 1 mM DTT and 0.5 mM PMSF was added and reacted at 4° C. for 10 minutes. Following addition of 10% Nonidet P-40 and vortexing for 10 seconds, the supernatant obtained by centrifugation at 13,000 rpm for 3 minutes was removed, and the remaining precipitate was washed three times with a low-osmotic pressure buffer. The precipitate was mixed with a high-osmotic pressure buffer [20 mM HEPES (pH 7.9), 400 mM NaCl, 1 mM EDTA, 1 mM DTT and 1 mM PMSF] and vortexed again at 4° C. for 10 minutes to induce a reaction for 20 minutes. Following centrifugation at 13,000 rpm for 10 minutes, a supernatant was obtained to be used as a nuclear fraction. A protein concentration was quantified using a protein quantify kit of PRO-MEASURE™ protein measurement solution (iNtRON Biotechnology, South Korea) according to the Bradford assay.
Sodium dodecylsulfate-polyacrylamide gel electrophoresis (SDS-PAGE) was performed using a gel electrophoresis device (Mighty Small SE 250, Hoefer Scientific Instruments, San Francisco) according to the method established by the inventors. […]

p300 = p300 protein and mRNA expression in LX-2; assay type: cell-based, human
Procedure: as §1
Sodium dodecylsulfate-polyacrylamide gel electrophoresis (SDS-PAGE) was performed using a gel electrophoresis device (Mighty Small SE 250, Hoefer Scientific Instruments, San Francisco) according to the method established by the inventors. A lysed cell fraction was diluted with a sample dilution buffer [63 mM Tris (pH. 6.8), 10% glycerol, 2% SDS, 0.0013% bromophenol blue, 5% β-mercaptoethanol], and subjected to electrophoresis in an electrode buffer (15 g Tris, 72 g glycerin and 5 g SDS contained in an 1 L solution) using a 8-12% gel. After electrophoresis, the gel was transferred to a nitrocellulose membrane to transfer proteins using an electrophoresis device for transfer in a transfer buffer (25 mM Tris, 192 mM glycerin, 20% v/v methanol (pH. 8.3)] at 40 mA for 3 hours. The nitrocellulose membrane was reacted with first antibodies, reacted with horseradish peroxidase-conjugated goat anti-rabbit IgG and horseradish peroxidase-conjugated goat anti-mouse IgG as secondary antibodies for 1 hour, and visualized using an ECL chemiluminescence system (Amersham, Gaithesberg, Mass.).
Thereafter, in the present invention, the influence of the GPR119 ligand on p300 expression was observed. […] From the result, it was assumed that a decrease in the expression of the p300 protein due to the GPR119 ligand could be caused by proteasomal degradation, and therefore the expression of the p300 protein was observed using a proteasome inhibitor, which is MG132.

[1] = test system: peptidyl prolyl isomerase (Pin1); assay: Pin1 expression in LX-2; assay type: cell-based, human; details: FIG. 5b
Procedure: as §1
According to existing reports, as a core factor participating in cell proliferation by PDGF, peptidyl prolyl isomerase (Pin1) is known. Therefore, Pin1 relevance with respect to the GPR119 ligand action was evaluated.

[2] = LX-2 treated with ligand alone, FIG. 4h

CCc1cnc(N2CCC(c3nc(COc4ccc(-n5cnnn5)cc4)cs3)CC2)nc1 [MBX-2982, 4-((4-(1H-tetrazol-1-yl)phenoxy)methyl)-2-(1-(5-ethylpyrimidin-2-yl)piperidin-4-yl)thiazole]
mRNA expression of collagen col1A1 (mouse HSCs): considerably inhibited | nuclear translocation of Smad2/Smad3 elevated by TGFβ1 (Smad2/Smad3; LX-2, FIG. 2e): inhibited | phosphorylation of Smad2/Smad3 elevated by TGFβ1 (Smad2/Smad3; LX-2, FIG. 2e): inhibited | inhibitory action on phosphorylation of Smad3 activated by TGFβ1, under AMPK inhibition (Smad2/Smad3; compound C / DN-AMPK, FIG. 4d): partially recovered by AMPK inhibition, but not completely offset | expression of the p300 protein (p300; [2]): reduced depending on the concentration | mRNA expression of p300 (p300; [2]): no influence | expression of the p300 protein decreased by ligand, with proteasome inhibitor MG132 (p300; with MG132 treatment, FIG. 4i): recovered | Pin1 expression [1]: time-dependently reduced

Reference: patent US9895370B2, “Pharmaceutical composition for preventing or treating of cirrhosis of liver comprising G protein coupled receptor 119 ligand as an active ingredient” (DONGGUK UNIVERSITY INDUSTRY—ACADEMIC COOPERATION FOUNDATION, priority 2015, dated 2018)
